In US6831101B2, “Tricyclic rantes receptor ligands” (Chemokine Therapeutics Corporation, priority 2001, dated 2004):

Assays:
[1] = tested on: CCR-1, -3, -4, and -5 receptors on THP-1 cells; assay: Competitive inhibition of 125I-RANTES binding to THP-1 cells; conditions: for % Inhibition (4 ug/ml) of 125I-RANTES binding: 4 ug/ml compound
Protocol: The binding studies were conducted using I^125 labeled RANTES as competitor and THP-1 cell lines.

[2] = tested on: RANTES-induced [Ca2+]i mobilization in THP-1 cells; assay: Inhibition of RANTES-induced [Ca2+]i mobilization in THP-1 cells; format: cell-based
Protocol: A rapid, transient rise in the free cytosolic Ca^2+ concentration ([Ca^2+]i) is one of the events in neutrophil activation and is assumed to be involved in many of the subsequent cellular reactions. Both Ca^2+ release from intracellular stores and Ca^2+ influx from the extracellular space contribute to the rise in [Ca^2+]i. […] Fura-2,AM loaded THP-1 cells were incubated with CTCM189 for 60 min prior to induction of [Ca^2+]i mobilization by 10 nM RANTES.

[3] = tested on: murine Experimental Allergic Encephalomyelitis (EAE); assay: EAE mouse model of multiple sclerosis, clinical severity grading; format: in vivo; conditions: 5, 20 and 40 mg/kg/day for 19 days, SJL/J mice, compared to control, FIG. 3
Excerpt: Experimental autoimmune encephalomyelitis (EAE) is a CD4^+ Th1-mediated inflammatory demyelinating disease of the central nervous system (CNS) that serves as a model for multiple sclerosis and other autoimmune diseases. It has previously been disclosed that RANTES regulates acute and relapsing autoimmune encephalomyelitis, and that RANTES production in the central nervous system is correlated with relapsing EAE development. In this example, the EAE mouse model (SJL/J mice) for MS is used, in which the disease is induced with Bordetella pertussis toxin (Claude C. A. et. al., (1975) Journal of Immunology 114(5): 1537-1540 and Hosseimi, H. et. al., (2000) Neurology 54 (7): A 166, An abstract presented in April 2000 on “Inhibition of proteosome prevents clinical signs in an experimental model of Multiple Sclerosis”).
Data for FIG. 3 was collected in an experiment involving five groups of 10 mice each, as follows: group I, normal control (no drug, no disease); group II, EAE control (MBP but no drug); group III, drug at 5 mg/kg body weight; group IV, drug at 20 mg/kg body weight; group V, drug at 40 mg/kg body weight. Three different concentrations of neoabietic acid were given to animals for 19 days: 5, 20, and 40 mg/kg/day in a volume of 100 ul Cremophore EL (Sigma). […]

| Compound | % Inhibition (4 ug/ml) of 125I-RANTES binding [1] [%] | IC50 ([1]; I125 labeled RANTES, THP-1 cells, data of FIG. 1, read-out: IC50, inhibition of binding of RANTES to THP-1 cells expressing CCR-1, -3, -4, and -5) [nM] | IC50 ([2]; Homo sapiens, Fura-2,AM loaded THP-1 cells, 60 min preincubation, 10 nM RANTES) [nM] | Inhibition of RANTES-induced [Ca2+]i mobilization at 5 uM ([2]; THP-1 cells, 5 uM compound) | Effect on clinical scores in EAE [3] |
| --- | --- | --- | --- | --- | --- |
| C=C[C@@]1(C)C=C2CC[C@@H]3[C@](C)(CCC[C@@]3(C)C(=O)O)[C@H]2CC1.N [C, Ammonium Pimarate] | 48 |  |  |  |  |
| C=C[C@]1(C)C=C2CC[C@@H]3[C@](C)(CCC[C@@]3(C)C(=O)O)[C@H]2CC1 [B, Sandaraco-pimaric acid] | 36 |  |  |  |  |
| CC(C)=C1C=C2CC[C@@H]3[C@](C)(CCC[C@@]3(C)C(=O)O)[C@H]2CC1 [Compound 1, 8(14), 13(15)-abietadien-18-oic-acid] | 68 | 253 | 27.2 | almost complete inhibition | beneficial effect on the clinical scores |
